We go through eleven molecules from ChEMBL document CHEMBL1201862, “PubChem BioAssay data set” (2004).

“And” between values parts separate entries of the source, which are not always exact repeats. Equal entries are not always repeated.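 Five concentrations, 48 hours, 96-well plates. GI50 = concentration required for 50% inhibition of growth.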 The source made the active and inactive calls. Cut-off read from the data, not from the text of the source: active = GI50 up to about 1.1 µM and inactive = higher. Bounds are passed on as bounds.

Some test systems named below: SK-OV-3; A498; HOP-92; NCI/ADR-RES; Malme-3M; NCI-H23; A549; RXF 393; SK-MEL-28; SNB-19; SK-MEL-5; CAKI-1; K562; SF-539; MCF7; HCT-15; SK-MEL-2; MOLT-4; SNB-75.
Holding throughout (assay): NCI-60 cell line screen, 48 h

On to `COC(=O)C1=C(C)NC(C)=C(C(=O)OC)C1c1cccc(NO)c1`, for which the GI50 is > 100 µM (inactive) in the assay with SK-OV-3; > 100 µM (inactive) with A498; 11.5 µM (inactive) with HOP-92; 20 µM (inactive) in the assay with NCI/ADR-RES; 16.4 µM (inactive) with Malme-3M; 16.3 µM (inactive) in the assay with NCI-H23. Moreover, the GI50 with A549 was > 100 µM (inactive); in the assay with RXF 393, 13.9 µM (inactive); with SK-MEL-28, 15.1 µM (inactive); in the assay on SNB-19, > 100 µM (inactive); with SK-MEL-5, 15.5 µM (inactive); with CAKI-1 it was 13.2 µM (inactive). For the same molecule, the GI50 in the assay with K562 is 4.76 µM (inactive); with SF-539, 17.4 µM (inactive); in the assay on MCF7, 19 µM (inactive); with HCT-15, 19.3 µM; in the assay on SK-MEL-2, 15.2 µM (inactive).
`CSc1c(C#N)c(O)n(-c2ccc(C)cc2)c(=O)c1C(C)=O`: the GI50 with SK-OV-3 was > 100 µM (inactive); in the assay on A498, 51.5 µM (inactive); in the assay with MOLT-4, > 100 µM (inactive); in the assay on NCI/ADR-RES it was > 100 µM (inactive); in the assay with SNB-75, > 100 µM (inactive); with Malme-3M it was > 100 µM (inactive). Further, the GI50 in the assay with NCI-H23, in the assay on A549, with RXF 393, in the assay with SK-MEL-28, in the assay with SNB-19 and with SK-MEL-5 was > 100 µM (inactive) in each case. The GI50 with CAKI-1 was > 100 µM (inactive); with K562 it was > 100 µM (inactive); in the assay with SF-539 it was > 100 µM (inactive); in the assay on MCF7 it was > 100 µM (inactive); in the assay on HCT-15 it was > 100 µM; in the assay on SK-MEL-2, > 100 µM (inactive).
`COC(=O)c1ccccc1/C=C1\Cc2ccc3c(c2C1=O)CCCC3`: the GI50 in the assay with SK-OV-3, in the assay with A498, with MOLT-4, in the assay with NCI/ADR-RES, in the assay on SNB-75 and with Malme-3M was > 100 µM (inactive) in each case. Also, the GI50 with NCI-H23, in the assay with A549, in the assay with SK-MEL-28, in the assay on SNB-19, in the assay with CAKI-1 and with K562 was > 100 µM (inactive) each time. The GI50 in the assay on SF-539 is > 100 µM (inactive); in the assay with MCF7 it was > 100 µM (inactive); with HCT-15, > 100 µM; with SK-MEL-2, > 100 µM (inactive).
With `COc1ccc(-n2c(C)nc3ccc(NC4OCC(O)C(O)C4O)cc3c2=O)cc1` (stereo not drawn), the GI50 with A498 is > 100 µM (inactive); with MOLT-4, 22.3 µM (inactive) and 31.5 µM (inactive); in the assay on NCI/ADR-RES it was 53.7 µM (inactive) and 83.6 µM (inactive); in the assay with SNB-75, > 100 µM (inactive); in the assay on Malme-3M, 57.7 µM (inactive) and 99.3 µM (inactive); with NCI-H23, 56.6 µM (inactive) and 38.3 µM (inactive). Moreover, the GI50 with RXF 393 is 22.7 µM (inactive) and 30.1 µM (inactive); in the assay on SK-MEL-28, 21.8 µM (inactive) and 32.1 µM (inactive); in the assay on SNB-19, > 100 µM (inactive); with SK-MEL-5 it was > 100 µM (inactive); with K562, 31.3 µM (inactive) and 30.8 µM (inactive); with MCF7, 43.5 µM (inactive) and 48.4 µM (inactive). The GI50 is 26.6 µM and 31.6 µM in the assay with HCT-15; > 100 µM (inactive) in the assay with SK-MEL-2.
As to `CCN(CC)CCCNc1c2c(Cl)cc(Cl)cc2nc2nc(O)nc(C)c12`, the GI50 with SK-OV-3 was 25.6 µM (inactive); in the assay on A498 it was > 100 µM (inactive); in the assay with HOP-92 it was 57.3 µM (inactive); in the assay with MOLT-4 it was 20.7 µM (inactive); with NCI/ADR-RES, > 100 µM (inactive); in the assay on Malme-3M it was 41.6 µM (inactive). The GI50 with NCI-H23 was 55.8 µM (inactive); in the assay on A549, 42.9 µM (inactive); in the assay on RXF 393 it was > 100 µM (inactive); in the assay with SK-MEL-28 it was 30.6 µM (inactive); with SNB-19, 19.5 µM (inactive); with SK-MEL-5 it was 65.9 µM (inactive). For the same molecule, the GI50 with CAKI-1 is > 100 µM (inactive); in the assay with K562, 44.1 µM (inactive); in the assay with SF-539, > 100 µM (inactive); in the assay on MCF7 it was 23.3 µM (inactive); in the assay on HCT-15, > 100 µM; with SK-MEL-2 it was 27.5 µM (inactive).
For `O=C1c2ccccc2C(=O)N1CC1(C(=O)O)NCCS1(=O)=O` (stereo not drawn), the GI50 in the assay with SK-OV-3, in the assay with A498, with HOP-92, with MOLT-4, in the assay on NCI/ADR-RES and with Malme-3M was > 100 µM (inactive) each time. Further, the GI50 in the assay on NCI-H23, with A549, with RXF 393, in the assay with SK-MEL-28, with SNB-19 and in the assay on SK-MEL-5 was > 100 µM (inactive) throughout. For the same molecule, the GI50 is > 100 µM (inactive) with CAKI-1; > 100 µM (inactive) with K562; > 100 µM (inactive) in the assay with SF-539; > 100 µM (inactive) in the assay with MCF7; > 100 µM in the assay with HCT-15; > 100 µM (inactive) with SK-MEL-2.
As for `COc1cc2c(cc1O)c(O)cc1c3cc(OC)c(OC)cc3c[n+](C)c21`, the GI50 in the assay with SK-OV-3 is > 100 µM (inactive); with A498, > 100 µM (inactive); in the assay with MOLT-4 it was 2.86 µM (inactive); with NCI/ADR-RES, > 85.9 µM (inactive); in the assay with SNB-75 it was 35.2 µM (inactive); with Malme-3M, 32.9 µM (inactive). For the same molecule, the GI50 with NCI-H23 was 4.69 µM (inactive); in the assay on A549 it was 44 µM (inactive); in the assay on RXF 393, > 67.5 µM (inactive); with SK-MEL-28, > 100 µM (inactive); with SNB-19, 1.13 µM (inactive); in the assay on SK-MEL-5, 19 µM (inactive). Further, the GI50 was > 54 µM (inactive) in the assay on CAKI-1; 5.04 µM (inactive) in the assay on K562; 3.65 µM (inactive) in the assay with SF-539; 8.73 µM (inactive) with MCF7; > 100 µM in the assay on HCT-15; > 100 µM (inactive) with SK-MEL-2.
As for `C/C(NC(=O)c1ccccc1)=C(/C(=O)c1ccccc1)[C@@H]1OC(C)(C)O[C@@H]1[C@H]1COC(C)(C)O1`, the GI50 in the assay with A498 was 86.1 µM (inactive); in the assay on HOP-92, 19.4 µM (inactive); in the assay on MOLT-4, 15.5 µM (inactive); in the assay on NCI/ADR-RES, 27.7 µM (inactive); in the assay with Malme-3M, 37.6 µM (inactive); in the assay with NCI-H23, 22.9 µM (inactive). In addition, the GI50 was 29.9 µM (inactive) with A549; 30.2 µM (inactive) in the assay on RXF 393; 52.4 µM (inactive) in the assay on SK-MEL-28; 46.2 µM (inactive) in the assay on SNB-19; 16.3 µM (inactive) with SK-MEL-5; 29.3 µM (inactive) with CAKI-1. Also, the GI50 was 20.9 µM (inactive) with K562; 54 µM (inactive) in the assay with SF-539; 40.8 µM (inactive) with MCF7; 32.8 µM with HCT-15; 23.3 µM (inactive) with SK-MEL-2.
In the case of `O=C(Nc1ccc2[nH]c(C(=O)N3CC(CCl)c4ccc([N+](=O)[O-])cc43)cc2c1)c1cc2ccccc2o1` (stereo not drawn), the GI50 with SK-OV-3, in the assay with A498, in the assay on HOP-92, with MOLT-4, with NCI/ADR-RES and in the assay on Malme-3M was > 1100 µM (inactive) throughout. The GI50 was > 1100 µM (inactive) in the assay with NCI-H23; 556 µM (inactive) in the assay on A549; > 1100 µM (inactive) in the assay on RXF 393; > 1100 µM (inactive) in the assay on SK-MEL-28; > 1100 µM (inactive) in the assay on SNB-19; > 1100 µM (inactive) with SK-MEL-5. The GI50 in the assay with CAKI-1 is > 1100 µM (inactive); in the assay on SF-539 it was > 1100 µM (inactive); in the assay on MCF7, > 1100 µM (inactive); with HCT-15, > 1100 µM; with SK-MEL-2, > 1100 µM (inactive).
`N#Cc1nc(C2CCC(=O)O2)oc1N` (stereo not drawn): the GI50 with SK-OV-3 is > 100 µM (inactive); with A498, > 100 µM (inactive); in the assay on MOLT-4, > 100 µM (inactive); in the assay with NCI/ADR-RES it was > 100 µM (inactive); in the assay with SNB-75, 29 µM (inactive); in the assay on Malme-3M, 13.4 µM (inactive). Moreover, the GI50 with NCI-H23, with RXF 393, with SK-MEL-28, in the assay on SNB-19, with SK-MEL-5 and in the assay on CAKI-1 was > 100 µM (inactive) in each case. Moreover, the GI50 with K562 is > 100 µM (inactive); in the assay with SF-539 it was > 100 µM (inactive); in the assay on MCF7 it was > 100 µM (inactive); with HCT-15, > 100 µM; in the assay with SK-MEL-2, > 100 µM (inactive).
Take `CC(C)(O)C1CC[C@]2(C)CC[C@]3(C)[C@H](CC[C@@H]4[C@@]5(C)CC[C@H](O)C(C)(C)[C@@H]5CC[C@]43C)[C@@H]12` (stereo partly drawn): the GI50 in the assay with SK-OV-3 was 23.1 µM (inactive); in the assay on HOP-92, 14.5 µM (inactive); with MOLT-4, 73.1 µM (inactive); in the assay with NCI/ADR-RES it was 29.4 µM (inactive); in the assay with SNB-75, 21.6 µM (inactive); with Malme-3M, 28.6 µM (inactive). The GI50 was 35.2 µM (inactive) with NCI-H23; 30.1 µM (inactive) in the assay with A549; 33.6 µM (inactive) with RXF 393; 29.2 µM (inactive) with SK-MEL-28; 68.7 µM (inactive) in the assay on SNB-19; 26 µM (inactive) with SK-MEL-5. Also, the GI50 in the assay on CAKI-1 is 22.1 µM (inactive); with K562 it was 82.6 µM (inactive); in the assay on SF-539, 23.4 µM (inactive); in the assay with MCF7 it was 34.6 µM (inactive); with HCT-15 it was 35 µM; in the assay on SK-MEL-2, 20.5 µM (inactive).
